Laboratory results published in patent US4835251A, “Method of chain combination” (Genetech, Inc., priority 1986, dated 1989).
Ends that are not written are not given here.

System: interpubic ligament
Assay: murine pubic symphysis assay (MPS)
Format: in vivo, mice
Details: for biological activity in the MPS assay (biological dose response comparison): estradiol-primed female mice, subcutaneous injection, ligament measured 18-20 hours later
Method: The human relaxin and human relaxin analogs were tested in bioassays. The murine pubic symphysis assay (MPS) uses Charles River albino CFW female mice weighing 18-20 g., J. St. Louis, Can. J. Physiol. Pharmacol. 59, 507-512 (1981). Estradiol priming solution is 5 μg estradiol 17β-cyclopentylpropionate in 0.1 ml peanut oil. Human relaxin dose solutions are at concentrations of 2.5, 5.0, 10.0, 20.0, 40.0, and 80.0 μg/ml in a 1% water solution of benzopurpurine 4B. When mice have been housed for at least six days in quarantine and weigh 18-20 g, each one is given a subcutaneous injection of estradiol priming solution. Exactly seven days later mice are injected subcutaneously with 0.2 ml of the appropriate human relaxin dose solution. Between 18 and 20 hours after the human relaxin injection the mice were sacrificed by cervical dislocation. The interpubic ligament is exposed and measured with a micrometer.
The rat uterine contractility in vitro bioassay measures human relaxin ability to relax smooth muscle in the presence of electrically stimulated contractions, J. St. Louis, (1981) Can. J. Physiol. Pharmacol. 59, 507-512. The murine pubic symphysis ligament in vivo bioassay measures relaxin's remodeling effect on connective tissue, Steinetz, B. G. et al. (1960) Endocrinology 67, 102. […] The MPS does responses indicate equipotence for natural human relaxin and H2(B2-33 A24) B Lys^4 B Ala^25, FIG. 3. […] All of the human analogues and natural sequence human relaxin are essentially indistinguishable in the MPS bioassay.

| Compound | biological activity in the MPS assay (biological dose response comparison) | MPS dose response curve, slope / parallelism relative to the other relaxins (mouse, in vivo) |
| --- | --- | --- |
| CC[C@H](C)[C@@H]1NC(=O)[C@H](C)NC(=O)[C@H]([C@@H](C)CC)NC(=O)[C@H](CCC(N)=O)NC(=O)[C@H](C)NC(=O)[C@H](CCCNC(=N)N)NC(=O)[C@H](C(C)C)NC(=O)[C@H](CC(C)C)NC(=O)[C@H](CCC(=O)O)NC(=O)[C@H](CCCNC(=N)N)NC(=O)CNC(=O)[C@@H](NC(=O)[C@H](CC(C)C)NC(=O)[C@H](CCCCN)NC(=O)[C@@H](NC(=O)[C@@H](NC(=O)[C@H](CCC(=O)O)NC(=O)[C@H](CCC(=O)O)NC(=O)[C@H](CCCCN)NC(=O)[C@H](Cc2c[nH]c3ccccc23)NC(=O)[C@@H](N)CO)C(C)C)[C@@H](C)CC)CSSC[C@@H]2NC(=O)[C@@H](NC(=O)[C@H](CCCCN)NC(=O)[C@H](CC(N)=O)NC(=O)[C@H](C)NC(=O)[C@H](CC(C)C)NC(=O)[C@H](C)NC(=O)[C@H](CO)NC(=O)[C@H](Cc3ccc(O)cc3)NC(=O)[C@H](CC(C)C)NC(=O)[C@@H]3CCC(=O)N3)CSSC[C@H](NC(=O)CNC(=O)[C@H](C(C)C)NC(=O)[C@H](Cc3c[nH]cn3)NC2=O)C(=O)N[C@@H]([C@@H](C)O)C(=O)N[C@@H](CCCCN)C(=O)N[C@@H](CCCNC(=N)N)C(=O)N[C@@H](CO)C(=O)N[C@@H](CC(C)C)C(=O)N[C@@H](C)C(=O)N[C@@H](CCCNC(=N)N)C(=O)N[C@@H](Cc2ccccc2)C(=O)N[C@H](C(=O)O)CSSC[C@@H](C(=O)NCC(=O)N[C@@H](C)C(=O)N[C@@H](CO)C(=O)N[C@H](C(=O)N[C@@H](Cc2c[nH]c3ccccc23)C(=O)N[C@@H](CO)C(=O)N[C@@H](CCCCN)C(=O)N[C@@H](CCCNC(=N)N)C(=O)N[C@@H](CO)C(=O)N[C@@H](CC(C)C)C(=O)O)[C@@H](C)O)NC1=O | biological activity | – |
| CC[C@H](C)[C@@H]1NC(=O)[C@H](C)NC(=O)[C@H]([C@@H](C)CC)NC(=O)[C@H](CCC(N)=O)NC(=O)[C@H](C)NC(=O)[C@H](CCCNC(=N)N)NC(=O)[C@H](C(C)C)NC(=O)[C@H](CC(C)C)NC(=O)[C@H](CCC(=O)O)NC(=O)[C@H](CCCNC(=N)N)NC(=O)CNC(=O)[C@@H](NC(=O)[C@H](CC(C)C)NC(=O)[C@H](CCCCN)NC(=O)[C@@H](NC(=O)[C@@H](NC(=O)[C@H](CCC(=O)O)NC(=O)[C@H](CCC(=O)O)NC(=O)[C@H](CCCCN)NC(=O)[C@H](Cc2c[nH]c3ccccc23)NC(=O)[C@H](CO)NC(=O)[C@@H](N)CC(=O)O)C(C)C)[C@@H](C)CC)CSSC[C@@H]2NC(=O)[C@@H](NC(=O)[C@H](CCCCN)NC(=O)[C@H](CC(N)=O)NC(=O)[C@H](C)NC(=O)[C@H](CC(C)C)NC(=O)[C@H](C)NC(=O)[C@H](CO)NC(=O)[C@H](Cc3ccc(O)cc3)NC(=O)[C@H](CC(C)C)NC(=O)[C@@H]3CCC(=O)N3)CSSC[C@H](NC(=O)CNC(=O)[C@H](C(C)C)NC(=O)[C@H](Cc3c[nH]cn3)NC2=O)C(=O)N[C@@H]([C@@H](C)O)C(=O)N[C@@H](CCCCN)C(=O)N[C@@H](CCCNC(=N)N)C(=O)N[C@@H](CO)C(=O)N[C@@H](CC(C)C)C(=O)N[C@@H](C)C(=O)N[C@@H](CCCNC(=N)N)C(=O)N[C@@H](Cc2ccccc2)C(=O)N[C@H](C(=O)O)CSSC[C@@H](C(=O)NCC(=O)N[C@@H](C)C(=O)N[C@@H](CO)C(=O)N[C@H](C(=O)N[C@@H](Cc2c[nH]c3ccccc23)C(=O)N[C@@H](CO)C(=O)N[C@@H](CCCCN)C(=O)N[C@@H](CCCNC(=N)N)C(=O)N[C@@H](CO)C(=O)N[C@@H](CC(C)C)C(=O)O)[C@@H](C)O)NC1=O | biological activity | – |
| porcine relaxin: Porcine relaxin, used for the standard curve in the RUC assay and compared in MPS (Relaxin B chain QSTNDFIKACGRELVRLWVEICGSVSWGRTAL; Relaxin A chain RMTLSEKCCQVGCIRKDIARLC; not fully specified; ends and bridges not checked; UniProt P01348 25-56; P01348 161-182, looked up) [reference compound] | – | non-parallel response |
